Laboratory results reported in patent US20060009433A1, “Neuroprotective spirostenol pharmaceutical compositions” (priority 2003, published 2006).

How the values were obtained:
NT2 cells = test: Flow cytometry of NT2 cells (cell cycle); assay type: cell-based, human; conditions: 25 μM, 12 days of treatment
Protocol: Human NT2 precursor (Ntera2/D 1 teratocarcinoma) cells were obtained from Stratagene (La Jolla, Calif., USA) and cultured following the instructions of the supplier. […] After trypsinization, the cells were collected, suspended (1-2×10^6 cells in 0.1 ml citrate/DMSO solution), stained with a solution containing propidium iodide (50 μg/ml) and RNase (10 μg/ml), and subjected to flow cytometric analysis in an FACS Scan flow cytometer (Becton Dickinson, Menlo Park, Calif., USA) equipped with a Modfit software program (Vindelov et al., Cytometry, 3, 332 (1983)).

[1] = tested on: PC12 cells (rat pheochromocytoma neurons); test: MTT cytotoxicity assay, Aβ-induced neurotoxicity in PC12 cells (Example II); assay type: cell-based; conditions: MTT; compounds at 30 and 50 μM; 72 hours
Protocol: (§1) PC12 cells (rat pheochromocytoma neurons) from ATCC (Manassas, Va.) were cultured at 37° C. and 5% CO2 in RPMI 1640 medium devoid of glutamine and supplemented with 10% fetal bovine serum and 5% horse serum. Yao Z, Drieu K and Papadopoulos V., The Gingko biloba extract EGb 761 rescues PC12 neuronal cells from β-amyloid-induced cell death by inhibiting the formation of (3-amyloid-derived diffusible neurotoxic ligands, Brain Res, 889, 181-190 (2001). Cells were seeded in 96-well plates (8×10^4 cells/well). After an overnight period of incubation, increasing concentrations of aggregated Aβ (0.1, 1 and 10 μM) were added to the cells in the presence or absence of the indicated concentrations of the SP compounds to be tested. After 72-hours incubation time various parameters, markers of cell viability, were determined. Mouse MA-10 tumor Leydig cells were maintained at 37° C. in DMEM/Ham's F12 (Biofluids, Rockville, Md.) medium supplemented with 5% heat-inactivated fetal calf serum and 2.5% horse serum in 5% CO2. Cells were plated on 96-well plates at the density of 2.5×10^4 cells/well for overnight. The cells were stimulated with the indicated concentrations of the various SP compounds in 0.2 ml/well serum-free medium for 2 hours. The culture medium was collected and tested for progesterone production by radioimmunoassay.
The cellular toxicity of Aβ was assessed using the 3-(4,5-dimethylthiazol-2-yl)-2,5-diphenyl tetrazolium bromide (MTT) assay (Trevigen, Gaithersburg, Md.). Briefly, 10 μl of the MTT solution were added to the cells cultured in 100 μl medium. After an incubation period of 4 hours, 100 μl of detergent were added and cells were incubated overnight at 37° C. Formazan blue formation was quantified at 600 nm and 690 nm using the Victor quantitative detection spectrophotometer (EGG-Wallac, Gaithersburg, Md.) and the results expressed as (DO600-DO690). […] Liu Y and Schubert D, Steroid hormones block amyloid fibril-induced 3-(4,5-dimethylthiazol-2-yl)-2,5-diphenyltetrazolium bromide (MTT) formazan exocytosis: relationship to neurotoxicity, J. Neurochem., 19, 1639-1662 (1998). For that reason, additional cytotoxicity and cell viability assays were used.
Yao et al., J. Neurochem., 83, 1110-1119 (2002); and Yao et al., The Gingko biloba extract EGb 761 rescues PC12 neuronal cells from β-amyloid-induced cell death by inhibiting the formation of β-amyloid-derived diffusible neurotoxic ligands, Brain Res., 889, 181-190 (2001). To stay close to the concentrations of Aβ present in AD brain, 0.1-10 μM concentrations of Aβ were used. The compounds tested for their neuroprotective properties were examined at 30 and 50 μM concentrations (FIGS. 9-15).

PC12 cells = test: Cellular ATP levels (ATPLite-M) in Aβ-treated PC12 cells; assay type: cell-based, rat; conditions: 0.1 and 1.0 μM Aβ
Protocol: as §1
Cellular ATP concentrations were measured using the ATPLite-M™ luminescence assay (Packard BioSciences Co.). For this assay, cells were cultured on black 96-well ViewPlate™ and the ATP concentrations were measured on a TopCount NXT™ counter (Packard BioSciences Co.) following the recommendations of the manufacturer.

Aβ1-40 = target: T1, Aβ1-40 (Homo sapiens, UniProt P05067); test: CPBBA, Aβ1-40; assay type: binding
T1 construct: purchased American Peptide Co. (Sunnyvale, Calif.)
Protocol: (§2) At the end of the incubation time, samples were separated by 1.5% agarose (Type I-B) gel electrophoresis and transferred to nitrocellulose membrane (Schleicher & Schuell, Keene, N.H.) in 10×SSC buffer. The membrane was exposed to tritium-sensitive screen and analyzed by phosphoimaging using the Cyclone Storage phosphor system (Packard BioScience, Meridien, Conn.). Image-densitometric analysis was performed using the OptiQuant software (Packard). […] Low molecular weight unincorporated 22i-hydroxycholesterol is separated and eliminated during electrophoresis.

Aβ1-42 [2] = target: T2, Aβ1-42 (Homo sapiens, UniProt P05067); test: Aβ aggregation assay (SDS-PAGE, immunoblot); assay type: biochemical; conditions: 50 μM Aβ1-42; 24 hours at 37° C.
Protocol: At the end of the incubation, proteins were separated by SDS-PAGE on 4-20% gradient acrylamide-bis-acrylamide gel at 125V for 2 hours. Proteins were visualized by coomassie blue staining. Aβ species were identified by immunoblot analysis. Yao, Z. et al., Brain Res. (2001).
The ability of 22R-hydroxycholesterol to alter Aβ aggregation was also examined. […] At the end of the incubation proteins were separated by SDS-PAGE and visualized by coomassie blue (FIG. 6A). Aβ species formed were identified by immunoblotting using an anti-Aβ polyclonal antiserum (FIG. 6B). Aβ aggregation can be seen on the top of the gel and it is absent in control-media lane. […] A 100 kDa band recognized by the Aβ polyclonal antiserum used in all samples, including control-media, probably reflects non-specific binding of the antiserum.

Aβ1-42 [3] = target: T2, Aβ1-42; test: Cholesterol-protein binding blot assay (CPBBA), Aβ1-42; conditions: for inhibition of binding of radiolabeled 22R-hydroxycholesterol to Aβ1-42: 50 μM Aβ1-42
Protocol: as §2
The membrane with the 22R-hydroxycholesterol-Aβ peptide complexes was then used to examine Aβ levels. Membranes were blocked by incubating the nitrocellulose in 5% milk and treated for immunodetection of Aβ using ECL reagents (Amersham-Pharmacia, Piscataway, N.J.). Li et al., Proc. Natl. Acad. Sci. USA, 98, 1267-1272 (2001). Anti-Aβ antibody and secondary antibodies were used at 0.2 μg/ml and 1:5000 dilution, respectively.

[4] = tested on: differentiated human NT2N neurons; test: MTT assay, Aβ1-42-induced toxicity on differentiated NT2N neurons; assay type: cell-based; conditions: for protection against Aβ-induced toxicity: 25 μM Aβ1-42, 72 hours

T2 sequence (P05067 672-713): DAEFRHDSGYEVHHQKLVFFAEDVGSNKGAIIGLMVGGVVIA
T1 sequence (P05067 672-711): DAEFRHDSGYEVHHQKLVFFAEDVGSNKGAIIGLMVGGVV

Q: For `CC(C)CC[C@@H](O)[C@@H](C)[C@H]1CC[C@H]2[C@@H]3CC=C4C[C@@H](O)CC[C@]4(C)[C@H]3CC[C@]12C` [SP222, 22R-hydroxycholesterol], which “percentage of cells in the G2/M phase” value (NT2 cells; from 34.43%) is on record?
A: 15.90%

Q: And the “percentage of cells in the G0/G1 phase” value (NT2 cells; from 35.32%)?
A: 50.34%

Q: And the “neuroprotection against 0.1 μM Aβ-induced neurotoxicity” value [1]?
A: protects

Q: What about the “neuroprotection against 1 μM Aβ-induced neurotoxicity” value [1] of the same compound?
A: protects

Q: What about the “neuroprotection against 10 μM Aβ-induced neurotoxicity” value [1] of the same compound?
A: limited neuroprotection

Q: What about the “reversal of Aβ-induced decrease in ATP levels” value (PC12 cells) of the same compound?
A: did not block

Q: What about the “binding to Aβ1-40” value (Aβ1-40) of the same compound?
A: barely interacts

Q: And the “effect on Aβ aggregation” value (Aβ1-42 [2])?
A: did not affect Aβ aggregation

Q: And the “inhibition of binding of radiolabeled 22R-hydroxycholesterol to Aβ1-42” value (Aβ1-42 [3]; 50 μM unlabeled)?
A: 50%

Q: What about the “inhibition of binding of radiolabeled 22R-hydroxycholesterol to Aβ1-42” value (Aβ1-42 [3]; 200 μM unlabeled) of the same compound?
A: 90%

Q: And the “binding to Aβ1-42” value (Aβ1-42 [3]; CPBBA, native conditions)?
A: binds

Q: And the “protection against Aβ-induced toxicity” value ([4]; 1 μM compound)?
A: 50%

Q: What about the “protection against Aβ-induced toxicity” value ([4]; 10 μM compound) of the same compound?
A: 100%

Q: What about the IC50 ([4]; Homo sapiens, Neuron, NT2T cells, read-out: IC50 of protection from Aβ-induced toxicity) of the same compound?
A: 3000 nM
